Assay results taken from PMC10301896 (Pharmaceutics, 2023).
In brackets after ≈: the same amount, converted by molar mass. Several values for one entry are separate records, joined by “and”; a condition that tells them apart may be missing. Identical values can stand only once. Entries after “also recorded” stand apart in the source; their conditions may differ. Like-named read-outs stand apart in the source and are kept apart here. One block for each compound: values may come before it.

What was measured:
[1] = cited from earlier work; for Rate of adsorption onto solid Al(OH)3: quinolones 50 µM
[2] = Partition coefficient, chloroform/0.1 M Tris-HCl buffer (pH 6.5); assay type: physicochemical
Description: Briefly, chloroform and 0.1 M Tris-HCl buffer (pH 6.5) were mutually saturated before experiments. […] Four milliliters of each drug solution were added to 4 mL of chloroform, and the mixture was vigorously shaken for 30 min at 25 °C. After centrifugation at 3000 rpm for 10 min, the concentration of the compound in both phases was determined by HPLC.

[3] = Solubility in pH 2 buffer and 0.1 M Tris-HCl buffer (pH 6.5); assay type: physicochemical; details: thermodynamic from solid, 25 °C
Description: The mixture was centrifuged at 3000 rpm for 10 min, and the supernatant was filtered through a syringe filter with 0.22 μm of pore size (Millipore, Tokyo, Japan), and the concentrations of the compound in the filtrate were measured by HPLC.

[4] = Chelation with Al3+ ion in vitro (precipitation with AlCl3); assay type: physicochemical; details: for Precipitation (%): drug 50 μM, pH 6.5, 30 min, 24 °C
Description: AlCl3 was also dissolved in the same buffer at a concentration of 50 μM, 100 μM, 200 μM, 1 mM, or 2 mM, and each drug solution and AlCl3 solution were mixed at an equal volume. The mixture solution was shaken, stood for 30 min at 24 °C and centrifuged. The supernatant was filtrated through a syringe filter with 0.22 μm of pore size (Millipore, Tokyo, Japan).

[5] = Chemical stability in phosphate buffer solutions; assay type: physicochemical; details: 37 °C
Description: (§1) Briefly, to examine the chemical stability of CFX-EHE, pH 6.5 and pH 7.4 phosphate buffer solutions (PBS) were used. Enzymatic stability of CFX-EHE (the initial concentration was 0.1 mM) was determined at 1, 5, and 15 min after the start of incubation at 37 °C using the following specimen: rat 10% plasma obtained from male Sprague Dawley (SD) rats, rat 2% small intestinal mucosal homogenates, and rat 2% liver homogenates in the same manner as described previously. […].

[6] = Enzymatic stability in rat 2% small intestinal mucosal homogenates; assay type: in vitro ADME; details: rat 2% mucosal homogenate, 37 °C
Description: as §1

[7] = Enzymatic stability in rat 2% liver homogenates; assay type: in vitro ADME; details: 37 °C
Description: as §1

[8] = Enzymatic stability in rat 10% plasma; assay type: in vitro ADME; details: 37 °C
Description: as §1

S. aureus ATCC29213 = assay: MIC, agar plate dilution method; assay type: cell-based, Staphylococcus (S.) aureus
Description: The bacterial numbers of S. aureus, E. coli, and P. aeruginosa were adjusted to McFarland 0.5 ([…]) with the sterilized isotonic NaCl solution. These bacterial solutions were inoculated in Mueller–Hinton broth containing CFX or CFX-EHE. Facultative anaerobic and aerobic bacteria were cultured under the aerobic condition at 37 °C for 20 h.

E. coli ATCC25922 = assay: MIC, agar plate dilution method; assay type: cell-based, Escherichia (E.) coli
Description: The bacterial numbers of S. aureus, E. coli, and P. aeruginosa were adjusted to McFarland 0.5 ([…]) with the sterilized isotonic NaCl solution. […] Facultative anaerobic and aerobic bacteria were cultured under the aerobic condition at 37 °C for 20 h.

P. aeruginosa ATCC27853 = assay: MIC, agar plate dilution method; assay type: cell-based, Pseudomonas (P.) aeruginosa
[9] = cited from earlier work
[10] = control rabbits
[11] = cited from earlier work; remark: listed apart in the source
[12] = sheep, dose of 2 mg/kg; cited from earlier work
[13] = mixed-breed dogs, dose of 5 mg/kg; cited from earlier work
[14] = cited from earlier work; remark: listed apart in the source
[15] = rats; cited from earlier work
[16] = individual rabbits
From the text: Rabbits were supplied solid food for rabbits (CR-3M, CLEA Japan, Inc., Tokyo, Japan), and the average amount of CR-3M that each rabbit ingested was 100–110 g/day. CR-3M contains various vitamins and cationic metals including Ca, Mg, and iron (Fe^2+, Fe^3+) in addition to various energy sources. […] Coprophagy was not prevented in control rabbits.
To estimate gastric contents, gastric Ca and Mg concentrations, and gastric pH in the untreated control (not fasted), control (fasted) and EDTA-treated rabbits, rabbits were sacrificed by intraperitoneal injection of an excess amount of pentobarbital. Rabbits were opened along the midline and their stomach was isolated. The stomach contents were taken out into a test tube and weighed, and the suspension was centrifuged at 3000 rpm for 10 min to measure the amount of gastric water. Then, concentrations of the Ca and Mg in the supernatant were measured by using L type Wako Ca (Fujifilm, Tokyo, Japan) and L type Wako Mg N (Fujifilm, Tokyo, Japan), respectively, and an automated clinical chemistry analyzer, TBA-nx360 (Canon, Tokyo, Japan). The pH of gastric water was also determined.

[17] = Mucosal damage after EDTA treatment: oral absorption of FD-4; details: >10 mL of 1 mg/mL EDTA 2Na orally, rabbits
Description: FD-4 was administered orally by stomach intubation at 10 mg/kg and 10 mL water. Blood (100 μL each) was taken periodically at 0, 0.5, 1, 2, and 4 h after administration from the ear vein. […] The concentrations of FD-4 in plasma were determined by Spectro fluorophotometer RF-1500 (Shimadzu Co., Ltd., Kyoto, Japan) using an excitation and emission wavelength of 480 nm and 520 nm, respectively.

[18] = rats; cited from earlier work; remark: listed apart in the source
[19] = cited from earlier work; remark: listed apart in the source
[20] = 2% mucosal homogenate, 1 min incubation; cited from earlier work
[21] = 2% liver homogenates, 1 min incubation; cited from earlier work
[22] = 10% plasma, 1 min incubation; cited from earlier work
[23] = gastric water, EDTA-treated rabbits

Compound: CC1COc2c(N3CCN(C)CC3)c(F)cc3c(=O)c(C(=O)O)cn1c23 (centres unmarked) [OFX, ofloxacin]
Elution rate of adsorbed quinolones with water [1]: 20.9%
Rate of adsorption onto solid Al(OH)3 [1]: 47.2%

log PC ([2]; chloroform/0.1 M Tris-HCl buffer (pH 6.5), 25 °C): 0.79
PC (partition coefficient) ([2]; chloroform/0.1 M Tris-HCl buffer (pH 6.5), 25 °C, mean of 3): 6.12
Apparent PC of CFX-EHE relative to CFX ([2]; chloroform/pH 6.5 buffer): 13 fold
solubility at 30 min ([3]; aqueous buffer, 0.1 M Tris-HCl buffer (pH 6.5), read-out: Solubility pH 6.5): 3080 µg/mL (≈ 6880 µM)
solubility at 30 min ([3]; pH 2 buffer adjusted with hydrochloric acid, pH 2, aqueous buffer, read-out: Solubility pH 2.0): 4280 µg/mL (≈ 9570 µM)
Precipitation (%) ([4]; AlCl3 25 μM): 0%
Precipitation (%) ([4]; AlCl3 50 μM): 0%
Precipitation (%) ([4]; AlCl3 100 μM): 0%
Precipitation (%) ([4]; AlCl3 500 μM): 0%
Hydrolysis (%) ([5]; 0.1 M PBS (pH 6.5), 1 min): 0%
Hydrolysis (%) ([5]; 0.1 M PBS (pH 6.5), 5 min): 0%
Hydrolysis (%) ([5]; 0.1 M PBS (pH 6.5), 15 min): 0%
Hydrolysis (%) ([5]; 0.1 M PBS (pH 7.4), 1 min): 0%
Hydrolysis (%) ([5]; 0.1 M PBS (pH 7.4), 5 min): 0%
Hydrolysis (%) ([5]; 0.1 M PBS (pH 7.4), 15 min): 0%
Hydrolysis (%) ([6]; 1 min): 20.4 ± 2.7%
Hydrolysis (%) ([6]; 5 min): 59.0 ± 9.2%
Hydrolysis (%) ([6]; 15 min): 85.9 ± 11.5%
Hydrolysis (%) ([7]; 1 min): 38.4 ± 15.8%
Hydrolysis (%) ([7]; 5 min): 69.5 ± 9.5%
Hydrolysis (%) ([7]; 15 min): 94.8 ± 3.4%
Hydrolysis (%) ([8]; 1 min): 9.5 ± 9.0%
Hydrolysis (%) ([8]; 5 min): 27.2 ± 1.0%
Hydrolysis (%) ([8]; 15 min): 71.1 ± 17.4%
MIC of CFX-EHE relative to CFX (S. aureus ATCC29213; S. aureus): more than 10 times
MIC (S. aureus ATCC29213; Staphylococcus aureus, S. aureus ATCC29213, 37 °C, 20 h): 4 µg/mL (≈ 8.94 µM)
MIC of CFX-EHE relative to CFX (E. coli ATCC25922; E. coli): more than 10 times
MIC (E. coli ATCC25922; Escherichia coli, E. coli ATCC25922, 37 °C, 20 h): 0.5 µg/mL (≈ 1.12 µM)
MIC of CFX-EHE relative to CFX (P. aeruginosa ATCC27853; P. aeruginosa): more than 10 times
MIC (P. aeruginosa ATCC27853; Pseudomonas aeruginosa, P. aeruginosa ATCC27853, 37 °C, 20 h): 8 µg/mL (≈ 17.9 µM)
Compound: CCOC(=O)OC(C)OC(=O)c1cn(C2CC2)c2cc(N3CCNCC3)c(F)cc2c1=O (centres unmarked) [CFX-EHE]

Total plasma clearance (CLtotal), Doseiv/AUC0–∞ ([10]; iv infusion): 13.7 mL/min/kg
Compound: C[C@H]1COc2c(N3CCN(C)CC3)c(F)cc3c(=O)c(C(=O)O)cn1c23 [LFX, levofloxacin]
PC [9]: 5.6
Precipitation percentage ([11]; 50 μM of AlCl3, same in vitro conditions): 12.4%
Absolute oral bioavailability [12]: 114 ± 27.7%
Absolute oral bioavailability [13]: 71.93 ± 9.75%
Elution rate of adsorbed quinolones with water [1]: 17.9%
Rate of adsorption onto solid Al(OH)3 [1]: 48.1%
Oral bioavailabilities in humans ([14]; LFX 200–750 mg, CFX 200–1000 mg, TC 250 mg, ref references listed in the discussion section): 70–100% (200–750 mg)
Fecal recovery, % of an intravenous dose ([14]; human, in vivo, iv): approximately 15%
Oral bioavailability ([14]; human, in vivo, po, 200 mg): 69 ± 7%
Oral bioavailability ([14]; human, in vivo, po, 250 mg): 79 ± 47%
Oral bioavailability ([14]; human, in vivo, po, 500 mg): 82 ± 13%
Oral bioavailability ([14]; human, in vivo, po): approximately 70%
Oral bioavailability ([14]; humans, review article): approximately 100%
Dose absorbed as the intact form from the intestinal tract into the portal system [15]: approximately 90%

Compound: O=C([O-])CN(CCN(CC(=O)O)CC(=O)O)CC(=O)[O-].[Na+].[Na+] [EDTA 2Na, disodium ethylenediamine tetraacetic acid]
Effect of added EDTA 2Na on precipitation of CFX with AlCl3 ([4]; EDTA 2Na 4 mg/mL, 12 mM added to mixture solutions of CFX and AlCl3): completely inhibited
Gastric Contents (g) ([16]; EDTA-treated rabbits (free access to 1 mg/mL EDTA 2Na, 10 mL at 1 h before; coprophagy prevented)): (3) 13.1 (hair > pellets) g; also recorded: (1) 9.5 (hair > pellets) g; also recorded: (2) 7.8 (hair > pellets) g
Gastric pH ([16]; EDTA-treated rabbits): 1.3 and 1.6 and 1.2
Water Contents ([16]; EDTA-treated rabbits): 10.5 mL and 6.7 mL and 4.8 mL
Concentrations Ca [16, 23]: 1.9 mg/dL and 2.6 mg/dL and 1.3 mg/dL
Concentrations Mg [16, 23]: 1.9 mg/dL and 1.6 mg/dL
Mucosal damage after EDTA treatment [17]: without causing mucosal damage
Lowest effective dose to increase the permeability of dichloromethylene bisphosphonate [18]: 100 mg/kg
Minimal effective dose to increase membrane permeability to 4-amino-1-hydroxybutylidene-1,1-bisphosphonate [18]: 10 mg/kg

Precipitation (%) ([4]; AlCl3 25 μM): 20.4 ± 17.6%
Precipitation (%) ([4]; AlCl3 50 μM): 22.9 ± 16.7%
Precipitation (%) ([4]; AlCl3 100 μM): 39.2 ± 17.7%
Precipitation (%) ([4]; AlCl3 500 μM): 55.5 ± 18.0%
Precipitation (%) ([4]; AlCl3 1 mM): 73.4 ± 2.0%
Compound: O=C(O)c1cn(C2CC2)c2cc(N3CCNCC3)c(F)cc2c1=O [CFX, ciprofloxacin]
β ([10]; […] iv infusion, LFX 20, CFX 30, TC 10 mg/kg): 0.34 ± 0.04 h⁻¹

Compound: CCn1cc(C(=O)O)c(=O)c2cc(F)c(N3CCNCC3)nc21 [ENX, enoxacin]
Elution rate of adsorbed quinolones with water [1]: 18.3%
Rate of adsorption onto solid Al(OH)3 [1]: 61.0%

Compound: CCOC(=O)OC(C)OC(=O)c1cn2c3c(c(N4CCN(C)CC4)c(F)cc3c1=O)OC[C@@H]2C (some centres unmarked) [LFX-EHE, levofloxacin-ethoxycarbonyl 1-ethyl hemiacetal ester]
PC [9]: 75.2
PC (lipophilicity) of LFX-EHE relative to LFX [9]: 13 fold
Solubility at pH 2.0 [19]: 16.54 mg/mL
Precipitation in the presence of AlCl3 ([11]; 1 mM of AlCl3 (drug: AlCl3 = 1:20)): not precipitated
Average hydrolysis % [20]: 17.4%
Average hydrolysis % [21]: 17.7%
Average hydrolysis % [22]: 8.2%
